Experimental data reported in patent US20230241029A1, “METHODS OF REDUCING POST-SURGICAL METASTASIS” (priority 2018, published 2023).

Key:
B16F10 melanoma cells = details: wild type mice with PVA sponges; HDC 1,500 μg/mouse i.p. thrice weekly for 2 weeks; foci counted 3 weeks after B16F10 injection; p<0.0001, n=10
Method: (§1) To mimic the wounding inflammation associated with surgery, sterile polyvinyl alcohol (PVA) sponges (1 cm^2 with a thickness of 2 mm) were implanted subcutaneously to wild type C57BL/6 and Nox2−/− mice (mouse strain B6.129S6-Cybbtm1Din, obtained from the Jackson Laboratory) aiming to induce tissue inflammation.
(§2) Mice received intraperitoneal injections of the NOX2-inhibitor HDC (1,500 μg/mouse) thrice weekly for 2 weeks starting two days before implantation of sponges.

[1] = test system: intracellular reactive oxygen species in CD11b+LyC6+ inflammatory monocytes; details: sponge-bearing wild type mice; HDC 1,500 μg/mouse i.p. thrice weekly; DCFDA, one week after implantation
Method: The values were normalized against those of unwounded control mice on each collection day.
as §1, §2
One week after implantation of sponges, before injection of melanoma cells, peripheral blood was drawn from vena saphena of wild type and Nox2−/− mice. Blood cells were stained for CD11b and Ly6C using fluorochrome-conjugated antibodies and with DCFDA to detect content of intracellular reactive oxygen species. The content of CD11b+LyC6+inflammatory monocytes in blood and their levels of intracellular radicals was determined using flow cytometry.

Cl.Cl.NCCc1c[nH]cn1 [HDC, histamine dihydrochloride]
formation of metastases (metastatic foci in lungs) during surgical/wounding-induced inflammation (B16F10 melanoma cells): significantly reduced
ROS levels in blood inflammatory monocytes [1]: trend towards reduced ROS levels
